Patent US9556201B2, “Bicyclic pyridines and analogs as sirtuin modulators” (GLAXOSMITHKLINE LLC, priority 2009, dated 2017)
pIC50: −log10 of the molar value.

Key:
SIRT1 = molecular target: T1, SIRT1 (Homo sapiens, UniProt Q96EB6); assay: Mass spectrometry based assay to identify modulators of SIRT1 activity (deacetylation of p53-based acetylated peptide substrate); type: biochemical; settings: for Emax: 25 min, read-out: % FOLD ACT. (percent maximum fold activation); for Emax / EC1.5: SIRT1 activation
T1 sequence (Q96EB6 1-747): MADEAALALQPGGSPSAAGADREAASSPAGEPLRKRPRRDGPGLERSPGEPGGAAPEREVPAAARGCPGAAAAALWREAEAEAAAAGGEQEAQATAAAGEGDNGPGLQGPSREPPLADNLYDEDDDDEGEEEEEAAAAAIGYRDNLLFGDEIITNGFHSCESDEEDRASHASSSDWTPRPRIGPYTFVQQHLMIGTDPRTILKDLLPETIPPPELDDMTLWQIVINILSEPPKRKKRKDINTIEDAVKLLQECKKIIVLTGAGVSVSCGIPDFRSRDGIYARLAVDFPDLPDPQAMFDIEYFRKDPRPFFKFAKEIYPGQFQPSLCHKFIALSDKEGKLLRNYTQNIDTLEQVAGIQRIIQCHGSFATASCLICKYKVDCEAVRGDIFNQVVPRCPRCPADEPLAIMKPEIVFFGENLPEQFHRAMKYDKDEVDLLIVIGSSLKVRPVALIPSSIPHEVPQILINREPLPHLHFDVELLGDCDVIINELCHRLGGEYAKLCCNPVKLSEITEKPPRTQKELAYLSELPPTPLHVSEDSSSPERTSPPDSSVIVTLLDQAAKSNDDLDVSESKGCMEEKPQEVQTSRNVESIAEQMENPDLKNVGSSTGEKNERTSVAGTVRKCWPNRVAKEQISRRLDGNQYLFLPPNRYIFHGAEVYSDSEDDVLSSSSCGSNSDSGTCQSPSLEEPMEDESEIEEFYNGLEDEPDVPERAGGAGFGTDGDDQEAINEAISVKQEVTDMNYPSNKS
In short: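 Deacetylation of a modified p53 acetyl-lysine peptide ([…], 5TMR-labelled, Nle for Met) by 10 nM N-His SIRT1 with 120 μM βNAD+, pH 8, 25 min, 25 °C. Substrate and product masses measured by MS after formic acid quench; nicotinamide defines maximal inhibition.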

TNF = TNF IC50 (column of Table 1; method not shown); type: cell-based

O=C(Nc1ccncc1)N1CCOc2ccc(-c3cccc(C(F)(F)F)c3)nc21 [Compound 501]
Emax (SIRT1): > 200% | EC1.5 (SIRT1): A (EC1.5<1.0 μM) | pIC50 (TNF): > 4.70

O=C(Nc1ccccn1)N1CCOc2ccc(-c3cccc(C(F)(F)F)c3)nc21 [Compound 502]
Emax (SIRT1): > 200% | EC1.5 (SIRT1): A (EC1.5<1.0 μM) | pIC50 (TNF): ≤ 4.70

O=C(Nc1ccncn1)N1CCOc2ccc(-c3cccc(C(F)(F)F)c3)nc21 [Compound 503]
Emax (SIRT1): > 200% | EC1.5 (SIRT1): A (EC1.5<1.0 μM) | pIC50 (TNF): ≤ 4.70

O=C(Nc1cccc(N2CCOCC2)n1)N1CCOc2ccc(-c3cccc(C(F)(F)F)c3)nc21 [Compound 506, N-(6-morpholinopyridin-2-yl)-6-(3-(trifluoromethyl)phenyl)-2H-pyrido[3,2-b][1,4]oxazine-4(3H)-carboxamide]
Emax (SIRT1): > 200% | EC1.5 (SIRT1): A (EC1.5<1.0 μM) | pIC50 (TNF): ≤ 4.70

O=C(Nc1ccnc(N2CCCC2)c1)N1CCOc2ccc(-c3cccc(C(F)(F)F)c3)nc21 [Compound 508]
Emax (SIRT1): > 200% | EC1.5 (SIRT1): A (EC1.5<1.0 μM) | pIC50 (TNF): ≤ 4.70

O=C(Nc1cccc(CN2CCOCC2)n1)N1CCOc2ccc(-c3cccc(C(F)(F)F)c3)nc21 [Compound 510]
Emax (SIRT1): > 200% | EC1.5 (SIRT1): A (EC1.5<1.0 μM) | pIC50 (TNF): ≤ 4.70

Cc1cc(C)nc(NC(=O)N2CCOc3ccc(-c4cccc(C(F)(F)F)c4)nc32)c1 [Compound 511]
Emax (SIRT1): > 200% | EC1.5 (SIRT1): A (EC1.5<1.0 μM) | pIC50 (TNF): ≤ 4.70

O=C(Nc1ccnc(N2CCC2)c1)N1CCOc2ccc(-c3cccc(C(F)(F)F)c3)nc21 [Compound 513]
Emax (SIRT1): > 200% | EC1.5 (SIRT1): A (EC1.5<1.0 μM) | pIC50 (TNF): ≤ 4.70

O=C(Nc1ccnc(N2CCC2)c1)N1CCOc2ccc(-c3cccc(F)c3)nc21 [Compound 519]
Emax (SIRT1): > 200% | EC1.5 (SIRT1): A (EC1.5<1.0 μM) | pIC50 (TNF): > 4.70

CN1CCN(C(=O)Nc2ccncc2)c2nc(-c3cccc(C(F)(F)F)c3)ccc21 [Compound 531]
Emax (SIRT1): > 200% | EC1.5 (SIRT1): A (EC1.5<1.0 μM) | pIC50 (TNF): > 4.70

Cc1cc(NC(=O)N2CCN(C)c3ccc(-c4cccc(C(F)(F)F)c4)nc32)cc(C)n1 [Compound 532]
Emax (SIRT1): ≤ 200% | EC1.5 (SIRT1): B (EC1.5 1-25 μM) | pIC50 (TNF): ≤ 4.70

Cc1csc(NC(=O)N2CCN(C)c3ccc(-c4cccc(C(F)(F)F)c4)nc32)n1 [Compound 533]
Emax (SIRT1): > 200% | EC1.5 (SIRT1): A (EC1.5<1.0 μM) | pIC50 (TNF): ≤ 4.70

Cc1cc(C)nc(NC(=O)N2CCN(C)c3ccc(-c4cccc(C(F)(F)F)c4)nc32)c1 [Compound 534]
Emax (SIRT1): ≤ 200% | EC1.5 (SIRT1): A (EC1.5<1.0 μM) | pIC50 (TNF): ≤ 4.70

CN1CCN(C(=O)Nc2ccncn2)c2nc(-c3cccc(C(F)(F)F)c3)ccc21 [Compound 535]
Emax (SIRT1): > 200% | EC1.5 (SIRT1): A (EC1.5<1.0 μM) | pIC50 (TNF): ≤ 4.70

CN1CCN(C(=O)Nc2cccnn2)c2nc(-c3cccc(C(F)(F)F)c3)ccc21 [Compound 537]
Emax (SIRT1): > 200% | EC1.5 (SIRT1): A (EC1.5<1.0 μM) | pIC50 (TNF): ≤ 4.70

CN1CCN(C(=O)Nc2ccnc(N3CCC3)c2)c2nc(-c3cccc(C(F)(F)F)c3)ccc21 [Compound 538]
Emax (SIRT1): > 200% | EC1.5 (SIRT1): A (EC1.5<1.0 μM) | pIC50 (TNF): > 4.70

CN1CCN(C(=O)Nc2cccc(CN3CCOCC3)n2)c2nc(-c3cccc(C(F)(F)F)c3)ccc21 [Compound 539]
Emax (SIRT1): > 200% | EC1.5 (SIRT1): A (EC1.5<1.0 μM) | pIC50 (TNF): > 4.70

Cc1cc(NC(=O)N2CCOc3ccc(-c4cccc(C(F)(F)F)c4)nc32)ccn1 [Compound 548]
Emax (SIRT1): > 200% | EC1.5 (SIRT1): A (EC1.5<1.0 μM) | pIC50 (TNF): ≤ 4.70

O=C(Nc1ccncc1F)N1CCOc2ccc(-c3cccc(C(F)(F)F)c3)nc21 [Compound 549]
Emax (SIRT1): > 200% | EC1.5 (SIRT1): A (EC1.5<1.0 μM) | pIC50 (TNF): ≤ 4.70

Cc1cncc(NC(=O)N2CCOc3ccc(-c4cccc(C(F)(F)F)c4)nc32)c1 [Compound 551]
Emax (SIRT1): > 200% | EC1.5 (SIRT1): A (EC1.5<1.0 μM) | pIC50 (TNF): ≤ 4.70

Cc1cc(NC(=O)N2CCOc3ccc(-c4cccc(C(F)(F)F)c4)nc32)cc(C)n1 [Compound 556]
Emax (SIRT1): > 200% | EC1.5 (SIRT1): A (EC1.5<1.0 μM) | pIC50 (TNF): > 4.70

CC1(C)CCN(C(=O)Nc2cncnc2)c2nc(-c3cccc(C(F)(F)F)c3)ccc21 [Compound 835]
EC1.5 (concentration giving 1.5-fold activation) (SIRT1): 1 to 25 µM | Emax (SIRT1): > 200%

CC1(C)CCN(C(=O)Nc2ccncc2F)c2nc(-c3cccc(Cl)c3)ccc2C1=O [Compound 836, 2-(3-chlorophenyl)-N-(3-fluoropyridin-4-yl)-6,6-dimethyl-5-oxo-7,8-dihydro-5H-pyrido[2,3-b]azepine-9(6H)-carboxamide]
EC1.5 (concentration giving 1.5-fold activation) (SIRT1): 1 to 25 µM | Emax (SIRT1): ≤ 200%

Cc1csc(NC(=O)N2CCC(C)(C)C(=O)c3ccc(-c4cccc(Cl)c4)nc32)n1 [Compound 837]
EC1.5 (concentration giving 1.5-fold activation) (SIRT1): 1 to 25 µM | Emax (SIRT1): ≤ 200%

O=C(Nc1cccc(OCC(O)CO)c1)N1CCC(F)(F)c2ccc(-c3cccc(C(F)(F)F)c3)nc21 (stereo not shown) [Compound 841]
EC1.5 (concentration giving 1.5-fold activation) (SIRT1): < 1 µM | Emax (SIRT1): > 200%

CC1(C)CCN(C(=O)Nc2ncccc2F)c2nc(-c3cccc(C(F)(F)F)c3)ccc21 [Compound 842]
EC1.5 (concentration giving 1.5-fold activation) (SIRT1): 1 to 25 µM | Emax (SIRT1): ≤ 200%

CC1(C)CCN(C(=O)Nc2ccc(F)cn2)c2nc(-c3cccc(C(F)(F)F)c3)ccc21 [Compound 843]
EC1.5 (concentration giving 1.5-fold activation) (SIRT1): 1 to 25 µM | Emax (SIRT1): ≤ 200%

Cc1cc(OCC(O)CO)nc(NC(=O)N2CCC(C)(C)c3ccc(-c4cccc(C(F)(F)F)c4)nc32)n1 (stereo not shown) [Compound 844]
EC1.5 (concentration giving 1.5-fold activation) (SIRT1): 1 to 25 µM | Emax (SIRT1): > 200%

CC1(C)CCN(C(=O)Nc2cc(OCC(O)CO)ccn2)c2nc(-c3cccc(C(F)(F)F)c3)ccc21 (stereo not shown) [Compound 846]
EC1.5 (concentration giving 1.5-fold activation) (SIRT1): < 1 µM | Emax (SIRT1): > 200%

CC1(C)CCN(C(=O)Nc2ccncc2F)c2nc(-c3cccc(C(F)(F)F)c3)ccc21 [Compound 847]
EC1.5 (concentration giving 1.5-fold activation) (SIRT1): > 25 µM | Emax (SIRT1): ≤ 200%

O=C(Nc1cncnc1)N1CCCOc2ccc(-c3cccc(Cl)c3)nc21 [Compound 852]
EC1.5 (concentration giving 1.5-fold activation) (SIRT1): 1 to 25 µM | Emax (SIRT1): > 200%

O=C(Nc1cncc(F)c1)N1CCCOc2ccc(-c3cccc(Cl)c3)nc21 [Compound 853]
EC1.5 (concentration giving 1.5-fold activation) (SIRT1): 1 to 25 µM | Emax (SIRT1): > 200%

COc1nccc(NC(=O)N2CCCOc3ccc(-c4cccc(Cl)c4)nc32)n1 [Compound 854]
EC1.5 (concentration giving 1.5-fold activation) (SIRT1): 1 to 25 µM | Emax (SIRT1): > 200%

Cc1cnccc1NC(=O)N1CCCOc2ccc(-c3cccc(Cl)c3)nc21 [Compound 855]
EC1.5 (concentration giving 1.5-fold activation) (SIRT1): 1 to 25 µM | Emax (SIRT1): ≤ 200%

O=C(Nc1ccncc1)N1CCCOc2ccc(-c3cccc(Cl)c3)nc21 [Compound 856]
EC1.5 (concentration giving 1.5-fold activation) (SIRT1): 1 to 25 µM | Emax (SIRT1): > 200%

Cc1cc(C)nc(NC(=O)N2CCCOc3ccc(-c4cccc(Cl)c4)nc32)c1 [Compound 857]
EC1.5 (concentration giving 1.5-fold activation) (SIRT1): > 25 µM | Emax (SIRT1): ≤ 200%

O=C(Nc1cncc(OCC(O)CO)n1)N1CCCOc2ccc(-c3cccc(Cl)c3)nc21 (stereo not shown) [Compound 858]
EC1.5 (concentration giving 1.5-fold activation) (SIRT1): < 1 µM | Emax (SIRT1): > 200%

Cc1cc(OCC(O)CO)nc(NC(=O)N2CCCOc3ccc(-c4cccc(Cl)c4)nc32)n1 (stereo not shown) [Compound 859]
EC1.5 (concentration giving 1.5-fold activation) (SIRT1): 1 to 25 µM | Emax (SIRT1): > 200%

Cc1cc(NC(=O)N2CCCOc3ccc(-c4cccc(Cl)c4)nc32)ncc1F [Compound 863]
EC1.5 (concentration giving 1.5-fold activation) (SIRT1): 1 to 25 µM | Emax (SIRT1): ≤ 200%

O=C(Nc1ncccn1)N1CCCOc2ccc(-c3cccc(Cl)c3)nc21 [Compound 865]
EC1.5 (concentration giving 1.5-fold activation) (SIRT1): 1 to 25 µM | Emax (SIRT1): > 200%

O=C(Nc1cnccn1)N1CCCOc2ccc(-c3cccc(Cl)c3)nc21 [Compound 866]
EC1.5 (concentration giving 1.5-fold activation) (SIRT1): 1 to 25 µM | Emax (SIRT1): > 200%

O=C(Nc1cccnn1)N1CCCOc2ccc(-c3cccc(Cl)c3)nc21 [Compound 867]
EC1.5 (concentration giving 1.5-fold activation) (SIRT1): 1 to 25 µM | Emax (SIRT1): > 200%

Cc1cccnc1NC(=O)N1CCCOc2ccc(-c3cccc(Cl)c3)nc21 [Compound 871]
EC1.5 (concentration giving 1.5-fold activation) (SIRT1): > 25 µM | Emax (SIRT1): ≤ 200%

COc1cc(NC(=O)N2CCCOc3ccc(-c4cccc(Cl)c4)nc32)ncn1 [Compound 872]
EC1.5 (concentration giving 1.5-fold activation) (SIRT1): < 1 µM | Emax (SIRT1): > 200%

Cc1nn(C)c(C)c1NC(=O)N1CCCOc2ccc(-c3cccc(Cl)c3)nc21 [Compound 879]
EC1.5 (concentration giving 1.5-fold activation) (SIRT1): > 25 µM | Emax (SIRT1): ≤ 200%

O=C(Nc1ccnc2cccnc12)N1CCCOc2ccc(-c3cccc(Cl)c3)nc21 [Compound 884]
EC1.5 (concentration giving 1.5-fold activation) (SIRT1): 1 to 25 µM | Emax (SIRT1): > 200%

O=C1NCc2cccc(NC(=O)N3CCCOc4ccc(-c5cccc(Cl)c5)nc43)c21 [Compound 885]
EC1.5 (concentration giving 1.5-fold activation) (SIRT1): 1 to 25 µM | Emax (SIRT1): ≤ 200%
